From ChEMBL document CHEMBL5634099, “Pyrrole-thiazolidinone hybrids as a new structural class of broad-spectrum anti-infectives” (Eur J Med Chem, 2023)
In brackets after ≈: the same amount, converted by molar mass.

Key:
Format in all cases: functional
[1] = tested on: Mycobacterium tuberculosis; test: Antimycobacterial activity against Mycobacterium tuberculosis H37Rv ATCC 27294 assessed as bacterial growth inhibition incubated for 7 days by resazurin dye based assay; conditions: H37Rv ATCC 27294, 168 h, time 7 day
[2] = tested on: Mycolicibacterium fortuitum; test: Antimycobacterial activity against Mycobacterium fortuitum ATCC 6841 assessed as bacterial growth inhibition incubated for 7 days by resazurin dye based assay; conditions: ATCC 6841, 168 h, time 7 day
[3] = tested on: Klebsiella pneumoniae; test: Antibacterial activity against Klebsiella pneumoniae BAA 1705 assessed as bacterial growth inhibition incubated for 16 to 18 hrs by CLSI based susceptibility testing method; conditions: time 16-18 hrs
[4] = tested on: Escherichia coli; test: Antibacterial activity against Escherichia coli ATCC 25922 assessed as bacterial growth inhibition incubated for 16 to 18 hrs by CLSI based susceptibility testing method; conditions: time 16-18 hrs
[5] = tested on: Staphylococcus aureus; test: Antibacterial activity against Staphylococcus aureus ATCC 29213 assessed as bacterial growth inhibition incubated for 16 to 18 hrs by CLSI based susceptibility testing method; conditions: time 16-18 hrs
[6] = tested on: Acinetobacter baumannii; test: Antibacterial activity against Acinetobacter baumannii BAA 1605 assessed as bacterial growth inhibition incubated for 16 to 18 hrs by CLSI based susceptibility testing method; conditions: time 16-18 hrs
[7] = tested on: Mycobacteroides chelonae; test: Antimycobacterial activity against Mycobacteroides chelonae ATCC 35752 assessed as bacterial growth inhibition incubated for 7 days by resazurin dye based assay; conditions: ATCC 35752, 168 h, time 7 day
[8] = tested on: Mycobacteroides abscessus; test: Antimycobacterial activity against Mycobacterium abscessus ATCC 19977 assessed as bacterial growth inhibition incubated for 7 days by resazurin dye based assay; conditions: ATCC 19977, 168 h, time 7 day
[9] = tested on: Pseudomonas aeruginosa; test: Antibacterial activity against Pseudomonas aeruginosa ATCC 27853 assessed as bacterial growth inhibition incubated for 16 to 18 hrs by CLSI based susceptibility testing method; conditions: time 16-18 hrs

Row | SMILES | MIC [1] [µg/mL] | MIC [2] [µg/mL] | MIC [3] [µg/mL] | MIC [4] [µg/mL] | MIC [5] [µg/mL] | MIC [6] [µg/mL] | MIC [7] [µg/mL] | MIC [8] [µg/mL] | MIC [9] [µg/mL]
1 | Cc1nc(/N=C2\NC(=O)/C(=C/c3cc(C)n(-c4ccc(F)cc4)c3C)S2)sc1C | 16 (≈ 37.5 µM) | > 64 | > 64 | > 64 | > 64 | > 64 | > 64 | > 64 | > 64
2 | COc1cccc(-n2c(C)cc(/C=C3\S/C(=N/c4nc(C)c(C)s4)NC3=O)c2C)c1 | 2 (≈ 4.56 µM) | > 64 | > 64 | > 64 | > 64 | > 64 | > 64 | > 64 | > 64
3 | COc1cccc(-n2c(C)cc(/C=C3\S/C(=N/c4nccs4)NC3=O)c2C)c1 | > 64 | > 64 | > 64 | > 64 | 64 (≈ 156 µM) | > 64 | > 64 | > 64 | > 64
4 | Cc1cc(/C=C2\S/C(=N/c3nccs3)NC2=O)c(C)n1-c1cccc(F)c1 | 8 (≈ 20.1 µM) | > 64 | > 64 | > 64 | 1 (≈ 2.51 µM) | > 64 | > 64 | > 64 | > 64
5 | Cc1nc(/N=C2\NC(=O)/C(=C/c3cc(C)n(-c4ccc(Cl)cc4)c3C)S2)sc1C | > 64 | > 64 | > 64 | > 64 | > 64 | > 64 | > 64 | > 64 | > 64
6 | COc1ccc(-n2c(C)cc(/C=C3\S/C(=N/c4nc(C)c(C)s4)NC3=O)c2C)cc1 | > 64 | > 64 | > 64 | > 64 | > 64 | > 64 | > 64 | > 64 | > 64
7 | Cc1ccc(-n2c(C)cc(/C=C3\S/C(=N/c4nc(C)c(C)s4)NC3=O)c2C)cc1 | > 64 | > 64 | > 64 | > 64 | > 64 | > 64 | > 64 | > 64 | > 64
8 | Cc1nc(/N=C2\NC(=O)/C(=C/c3cc(C)n(-c4ccccc4O)c3C)S2)sc1C | > 64 | > 64 | > 64 | > 64 | > 64 | > 64 | > 64 | > 64 | > 64
9 | Cc1nc(/N=C2\NC(=O)/C(=C/c3cc(C)n(-c4ccccc4Cl)c3C)S2)sc1C | 2 (≈ 4.51 µM) | > 64 | > 64 | > 64 | > 64 | > 64 | > 64 | > 64 | > 64
10 | Cc1cc(/C=C2\S/C(=N/c3nccs3)NC2=O)c(C)n1-c1ccc([N+](=O)[O-])cc1 | > 64 | > 64 | > 64 | > 64 | > 64 | > 64 | > 64 | > 64 | > 64
11 | Cc1nc(/N=C2\NC(=O)/C(=C/c3cc(C)n(-c4cccc(F)c4)c3C)S2)sc1C | 64 (≈ 150 µM) | > 64 | > 64 | > 64 | > 64 | > 64 | > 64 | > 64 | > 64
12 | Cc1nc(/N=C2\NC(=O)/C(=C/c3cc(C)n(-c4ccccc4)c3C)S2)sc1C | > 64 | > 64 | > 64 | > 64 | > 64 | > 64 | > 64 | > 64 | > 64
13 | Cc1cc(/C=C2\S/C(=N/c3nccs3)NC2=O)c(C)n1-c1ccccc1 | 8 (≈ 21 µM) | > 64 | > 64 | > 64 | 2 (≈ 5.26 µM) | > 64 | > 64 | > 64 | > 64
14 | Cc1nc(/N=C2\NC(=O)/C(=C/c3cc(C)n(-c4cc(Cl)ccc4O)c3C)S2)sc1C | > 64 | > 64 | > 64 | > 64 | 64 (≈ 139 µM) | > 64 | > 64 | > 64 | > 64
15 | Cc1ccc(-n2c(C)cc(/C=C3\S/C(=N/c4nccs4)NC3=O)c2C)cc1 | 8 (≈ 20.3 µM) | > 64 | > 64 | > 64 | 4 (≈ 10.1 µM) | > 64 | > 64 | > 64 | > 64
16 | Cc1nc(/N=C2\NC(=O)/C(=C/c3cc(C)n(-c4ccc(N5CCOCC5)cc4)c3C)S2)sc1C | > 64 | > 64 | > 64 | > 64 | 64 (≈ 130 µM) | > 64 | > 64 | > 64 | > 64
17 | Cc1cc(/C=C2\S/C(=N/c3nccs3)NC2=O)c(C)n1-c1ccc(C#N)c(Cl)c1 | 16 (≈ 36.4 µM) | > 64 | > 64 | > 64 | > 64 | > 64 | > 64 | > 64 | > 64
18 | COc1ccc(-n2c(C)cc(/C=C3\S/C(=N/c4nccs4)NC3=O)c2C)cc1 | 64 (≈ 156 µM) | > 64 | > 64 | > 64 | 2 (≈ 4.87 µM) | > 64 | > 64 | > 64 | > 64
19 | Cc1cc(/C=C2\S/C(=N/c3nccs3)NC2=O)c(C)n1-c1ccc(F)cc1 | 4 (≈ 10 µM) | > 64 | > 64 | > 64 | > 64 | > 64 | > 64 | > 64 | > 64
20 | Cc1cc(/C=C2\S/C(=N/c3nccs3)NC2=O)c(C)n1-c1ccccc1Br | 8 (≈ 17.4 µM) | > 64 | > 64 | > 64 | 4 (≈ 8.71 µM) | > 64 | > 64 | > 64 | > 64
21 | Cc1nc(/N=C2\NC(=O)/C(=C/c3cc(C)n(-c4ccc(C#N)c(Cl)c4)c3C)S2)sc1C | > 64 | > 64 | > 64 | > 64 | > 64 | > 64 | > 64 | > 64 | > 64
22 | Cc1ccc(-n2c(C)cc(/C=C3\S/C(=N/c4nc(C)c(C)s4)NC3=O)c2C)cc1C | 4 (≈ 9.16 µM) | > 64 | > 64 | > 64 | > 64 | > 64 | > 64 | > 64 | > 64
23 | Cc1nc(/N=C2\NC(=O)/C(=C/c3cc(C)n(-c4cccc(Cl)c4)c3C)S2)sc1C | 4 (≈ 9.03 µM) | > 64 | > 64 | > 64 | > 64 | > 64 | > 64 | > 64 | > 64
24 | Cc1cc(/C=C2\S/C(=N/c3nccs3)NC2=O)c(C)n1-c1cccc(Cl)c1 | > 64 | > 64 | > 64 | > 64 | 8 (≈ 19.3 µM) | > 64 | > 64 | > 64 | > 64
